Results reported in patent publication US7572774B2, “Methods for treating glutamate cytotoxicity with beta-naphthoquinone compounds” (Centre National de la Recherche Scientific (C.N.R.S.), priority 1999, dated 2009).

Test system: release of glutamate from synaptosomes of mouse brains
Experiment: Release of glutamate from synaptosomes of mouse brains (cerebellar mossy fibers), spontaneous and induced by depolarization, chemiluminescence detection
Format: cell-based
Protocol: B: Study of the effect of naftazone and of its glucuronide derivatives on the release of glutamate from synaptosomes of mouse brains.
In order to prepare the synaptosomes of mossy fibers, the Swiss-Webster […] are decapitated and the cerebellum is rapidly removed. Small pieces of tissue (1–2 mm^3) are washed in 100 ml of a mammal saline standard solution containing (mM): NaCl, 136; KCl, 5.6; MgCl2 1.2; CaCl2 2.2; glucose 5.5; NaHCO3 7.5; NaHPO4/Na2HPO4 buffer 1.2.
An oxygen current is caused to flow through them for 10 minutes.
In order to dissociate the pieces, they are sucked in a reciprocal movement with a 1 ml pipette.
The homogenate obtained is diluted in 3 ml of mammal Krebs's solution and is filtered through a Nylon® tissue (mesh 50 μm).
The filtrate is collected and left to settle for 30–45 min by gravity.
Synaptosomes derived from the glutarmatergic mossy fibers settle because or their large size with the nuclear fraction. The supernatant is discarded and the sediment is resuspended in 1 ml of a standard solution. The release of glutamate from the synaptosomes is detected according to the technique used for evaluating it in the CSF.
FIGS. 2A and 2B show the effects of naftazone (at concentrations of 0.5–50 μM) and of its glucuronidated derivative, respectively, on the spontaneous release of glutamate (curve -∘-) and of that induced by depolarization (curve -•-).
Each point in A and B represents the ISEM average of 3 measurements carried out in triple. In A, the spontaneously released glutamate is continuously measured during an exposure of 1 hour to the tested drug and is compared with controls. Release of glutamate by depolarization is determined after a 1 hour exposure to the tested drug and is compared with controls.
The drugs are left to incubate for 1 hour with synaptosomal aliquots before the measurement.

## NC(=O)NNc1ccc2ccccc2c1O[C@@H]1O[C@H](C(=O)O)[C@@H](O)[C@H](O)[C@H]1O [glucuronidated derivative, 1-(1-hydroxy,2-naphthyl)semicarbazide-1-β-O-glucopyranosiduronic acid]
K+ (20 mM) containing Ca (5 mM), FIG. 2B
  release of glutamate induced by a medium with a high K+ content: reduces, in a dose-dependent way
At highest concentration tested (32 μM), K+ 20 mM, Ca 5 mM
  maximum reduction of K+-induced release of glutamate: about 60%
Glucuronidated derivative, range of the concentrations used (FIG. 2B)
  spontaneous release of glutamate from synaptosomes: does not reduce the spontaneous release of glutamate
